# According to the NIST ThermoML archive (doi:10.1021/je060271a):
# Numbers after ± are expanded uncertainties.
# Conditions: 303.15 K, Liquid, Vibrating tube method
structure (smiles),measurement,setting,value
CCCCC(=O)OCC(COC(=O)CCCC)(COC(=O)CCCC)COC(=O)CCCC [pentaerythritol tetrapentanoate],mass density,751.89 kPa,1011.3 ± 1.2 kg/m3
same,mass density,752.93 kPa,1011.3 ± 1.2 kg/m3
same,mass density,753.46 kPa,1011.4 ± 1.2 kg/m3
same,mass density,754.85 kPa,1011.5 ± 1.2 kg/m3
same,mass density,756.07 kPa,1011.3 ± 1.2 kg/m3
same,mass density,757.1 kPa,1011.2 ± 1.2 kg/m3
same,mass density,758.15 kPa,1011.2 ± 1.2 kg/m3
same,mass density,759.55 kPa,1011.4 ± 1.2 kg/m3
same,mass density,760.59 kPa,1011.3 ± 1.2 kg/m3
same,mass density,761.46 kPa,1011.3 ± 1.2 kg/m3
same,mass density,762.5 kPa,1011.4 ± 1.2 kg/m3
same,mass density,763.72 kPa,1011.3 ± 1.2 kg/m3
same,mass density,764.76 kPa,1011.3 ± 1.2 kg/m3
same,mass density,765.97 kPa,1011.4 ± 1.2 kg/m3
same,mass density,767.19 kPa,1011.3 ± 1.2 kg/m3
same,mass density,768.22 kPa,1011.4 ± 1.2 kg/m3
same,mass density,769.27 kPa,1011.3 ± 1.2 kg/m3
same,mass density,770.14 kPa,1011.4 ± 1.2 kg/m3
same,mass density,771.18 kPa,1011.4 ± 1.2 kg/m3
same,mass density,772.57 kPa,1011.4 ± 1.2 kg/m3
same,mass density,773.96 kPa,1011.4 ± 1.2 kg/m3
same,mass density,775 kPa,1011.3 ± 1.2 kg/m3
same,mass density,776.04 kPa,1011.3 ± 1.2 kg/m3
same,mass density,777.44 kPa,1011.4 ± 1.2 kg/m3
same,mass density,778.31 kPa,1011.3 ± 1.2 kg/m3
same,mass density,779.51 kPa,1011.4 ± 1.2 kg/m3
same,mass density,781.59 kPa,1011.4 ± 1.2 kg/m3
same,mass density,782.99 kPa,1011.3 ± 1.2 kg/m3
same,mass density,784.03 kPa,1011.3 ± 1.2 kg/m3
same,mass density,785.06 kPa,1011.2 ± 1.2 kg/m3
same,mass density,786.46 kPa,1011.3 ± 1.2 kg/m3
same,mass density,787.68 kPa,1011.4 ± 1.2 kg/m3
same,mass density,788.72 kPa,1011.4 ± 1.2 kg/m3
same,mass density,790.1 kPa,1011.3 ± 1.2 kg/m3
same,mass density,793.58 kPa,1011.4 ± 1.2 kg/m3
same,mass density,796.19 kPa,1011.4 ± 1.2 kg/m3
same,mass density,797.22 kPa,1011.4 ± 1.2 kg/m3
same,mass density,798.28 kPa,1011.4 ± 1.2 kg/m3
same,mass density,799.66 kPa,1011.4 ± 1.2 kg/m3
same,mass density,800.87 kPa,1011.4 ± 1.2 kg/m3
same,mass density,802.26 kPa,1011.3 ± 1.2 kg/m3
same,mass density,803.13 kPa,1011.3 ± 1.2 kg/m3
same,mass density,804.36 kPa,1011.3 ± 1.2 kg/m3
same,mass density,806.1 kPa,1011.3 ± 1.2 kg/m3
same,mass density,807.3 kPa,1011.2 ± 1.2 kg/m3
same,mass density,808.17 kPa,1011.4 ± 1.2 kg/m3
same,mass density,809.57 kPa,1011.4 ± 1.2 kg/m3
same,mass density,810.78 kPa,1011.4 ± 1.2 kg/m3
same,mass density,811.81 kPa,1011.4 ± 1.2 kg/m3
same,mass density,813.39 kPa,1011.4 ± 1.2 kg/m3
same,mass density,814.44 kPa,1011.4 ± 1.2 kg/m3
same,mass density,815.81 kPa,1011.4 ± 1.2 kg/m3
same,mass density,816.86 kPa,1011.3 ± 1.2 kg/m3
same,mass density,818.08 kPa,1011.4 ± 1.2 kg/m3
same,mass density,819.64 kPa,1011.3 ± 1.2 kg/m3
same,mass density,820.86 kPa,1011.4 ± 1.2 kg/m3
same,mass density,822.25 kPa,1011.3 ± 1.2 kg/m3
same,mass density,823.47 kPa,1011.4 ± 1.2 kg/m3
same,mass density,824.68 kPa,1011.4 ± 1.2 kg/m3
same,mass density,826.25 kPa,1011.3 ± 1.2 kg/m3
same,mass density,827.28 kPa,1011.4 ± 1.2 kg/m3
same,mass density,828.32 kPa,1011.4 ± 1.2 kg/m3
same,mass density,830.07 kPa,1011.4 ± 1.2 kg/m3
same,mass density,831.46 kPa,1011.3 ± 1.2 kg/m3
same,mass density,832.68 kPa,1011.3 ± 1.2 kg/m3
same,mass density,834.23 kPa,1011.4 ± 1.2 kg/m3
same,mass density,835.46 kPa,1011.3 ± 1.2 kg/m3
same,mass density,836.32 kPa,1011.3 ± 1.2 kg/m3
same,mass density,837.71 kPa,1011.3 ± 1.2 kg/m3
same,mass density,839.27 kPa,1011.4 ± 1.2 kg/m3
same,mass density,840.67 kPa,1011.4 ± 1.2 kg/m3
same,mass density,841.53 kPa,1011.4 ± 1.2 kg/m3
same,mass density,843.1 kPa,1011.5 ± 1.2 kg/m3
same,mass density,844.31 kPa,1011.4 ± 1.2 kg/m3
same,mass density,846.05 kPa,1011.4 ± 1.2 kg/m3
same,mass density,847.44 kPa,1011.4 ± 1.2 kg/m3
same,mass density,848.82 kPa,1011.4 ± 1.2 kg/m3
same,mass density,850.22 kPa,1011.5 ± 1.2 kg/m3
same,mass density,851.43 kPa,1011.4 ± 1.2 kg/m3
same,mass density,852.99 kPa,1011.3 ± 1.2 kg/m3
same,mass density,854.55 kPa,1011.4 ± 1.2 kg/m3
same,mass density,855.43 kPa,1011.3 ± 1.2 kg/m3
same,mass density,856.64 kPa,1011.4 ± 1.2 kg/m3
same,mass density,858.56 kPa,1011.4 ± 1.2 kg/m3
same,mass density,859.94 kPa,1011.3 ± 1.2 kg/m3
same,mass density,861.33 kPa,1011.4 ± 1.2 kg/m3
same,mass density,862.89 kPa,1011.4 ± 1.2 kg/m3
same,mass density,864.28 kPa,1011.4 ± 1.2 kg/m3
same,mass density,865.5 kPa,1011.5 ± 1.2 kg/m3
same,mass density,866.89 kPa,1011.3 ± 1.2 kg/m3
same,mass density,868.64 kPa,1011.3 ± 1.2 kg/m3
same,mass density,869.85 kPa,1011.3 ± 1.2 kg/m3
same,mass density,871.4 kPa,1011.4 ± 1.2 kg/m3
same,mass density,872.8 kPa,1011.3 ± 1.2 kg/m3
same,mass density,874.36 kPa,1011.4 ± 1.2 kg/m3
same,mass density,875.58 kPa,1011.4 ± 1.2 kg/m3
same,mass density,877.31 kPa,1011.4 ± 1.2 kg/m3
same,mass density,878.7 kPa,1011.3 ± 1.2 kg/m3
same,mass density,880.09 kPa,1011.4 ± 1.2 kg/m3
same,mass density,881.48 kPa,1011.3 ± 1.2 kg/m3
same,mass density,882.37 kPa,1011.5 ± 1.2 kg/m3
same,mass density,884.28 kPa,1011.4 ± 1.2 kg/m3
same,mass density,885.67 kPa,1011.4 ± 1.2 kg/m3
same,mass density,886.88 kPa,1011.4 ± 1.2 kg/m3
same,mass density,888.45 kPa,1011.5 ± 1.2 kg/m3
same,mass density,890 kPa,1011.4 ± 1.2 kg/m3
same,mass density,891.23 kPa,1011.4 ± 1.2 kg/m3
same,mass density,892.79 kPa,1011.4 ± 1.2 kg/m3
same,mass density,894.35 kPa,1011.5 ± 1.2 kg/m3
same,mass density,895.75 kPa,1011.3 ± 1.2 kg/m3
same,mass density,897.31 kPa,1011.5 ± 1.2 kg/m3
same,mass density,899.39 kPa,1011.5 ± 1.2 kg/m3
same,mass density,900.97 kPa,1011.4 ± 1.2 kg/m3
same,mass density,902.17 kPa,1011.4 ± 1.2 kg/m3
same,mass density,903.4 kPa,1011.4 ± 1.2 kg/m3
same,mass density,904.79 kPa,1011.4 ± 1.2 kg/m3
same,mass density,906.87 kPa,1011.4 ± 1.2 kg/m3
same,mass density,908.62 kPa,1011.4 ± 1.2 kg/m3
same,mass density,910 kPa,1011.4 ± 1.2 kg/m3
same,mass density,911.39 kPa,1011.4 ± 1.2 kg/m3
same,mass density,913.13 kPa,1011.4 ± 1.2 kg/m3
same,mass density,914.69 kPa,1011.5 ± 1.2 kg/m3
same,mass density,916.25 kPa,1011.5 ± 1.2 kg/m3
same,mass density,917.82 kPa,1011.4 ± 1.2 kg/m3
same,mass density,919.55 kPa,1011.4 ± 1.2 kg/m3
same,mass density,921.29 kPa,1011.4 ± 1.2 kg/m3
same,mass density,922.68 kPa,1011.4 ± 1.2 kg/m3
same,mass density,924.26 kPa,1011.5 ± 1.2 kg/m3
same,mass density,925.81 kPa,1011.4 ± 1.2 kg/m3
same,mass density,927.54 kPa,1011.6 ± 1.2 kg/m3
same,mass density,929.11 kPa,1011.4 ± 1.2 kg/m3
same,mass density,931.03 kPa,1011.4 ± 1.2 kg/m3
same,mass density,932.76 kPa,1011.6 ± 1.2 kg/m3
same,mass density,934.31 kPa,1011.4 ± 1.2 kg/m3
same,mass density,936.05 kPa,1011.5 ± 1.2 kg/m3
same,mass density,937.62 kPa,1011.4 ± 1.2 kg/m3
same,mass density,939.53 kPa,1011.5 ± 1.2 kg/m3
same,mass density,941.27 kPa,1011.5 ± 1.2 kg/m3
same,mass density,943 kPa,1011.4 ± 1.2 kg/m3
same,mass density,944.4 kPa,1011.5 ± 1.2 kg/m3
same,mass density,946.13 kPa,1011.4 ± 1.2 kg/m3
same,mass density,947.18 kPa,1011.5 ± 1.2 kg/m3
same,mass density,949.26 kPa,1011.4 ± 1.2 kg/m3
same,mass density,950.82 kPa,1011.4 ± 1.2 kg/m3
same,mass density,952.73 kPa,1011.5 ± 1.2 kg/m3
same,mass density,954.48 kPa,1011.5 ± 1.2 kg/m3
same,mass density,956.38 kPa,1011.4 ± 1.2 kg/m3
same,mass density,958.11 kPa,1011.4 ± 1.2 kg/m3
same,mass density,960.21 kPa,1011.4 ± 1.2 kg/m3
same,mass density,961.77 kPa,1011.5 ± 1.2 kg/m3
same,mass density,963.32 kPa,1011.5 ± 1.2 kg/m3
same,mass density,965.24 kPa,1011.4 ± 1.2 kg/m3
same,mass density,967.49 kPa,1011.5 ± 1.2 kg/m3
same,mass density,969.05 kPa,1011.5 ± 1.2 kg/m3
same,mass density,970.44 kPa,1011.4 ± 1.2 kg/m3
same,mass density,972.01 kPa,1011.5 ± 1.2 kg/m3
same,mass density,974.27 kPa,1011.4 ± 1.2 kg/m3
same,mass density,976.34 kPa,1011.4 ± 1.2 kg/m3
same,mass density,977.92 kPa,1011.4 ± 1.2 kg/m3
same,mass density,979.13 kPa,1011.6 ± 1.2 kg/m3
